The values that follow come from paper PMC9289885, “Antimicrobial Peptides against Multidrug-Resistant Pseudomonas aeruginosa Biofilm from Cystic Fibrosis Patients” (Journal of Medicinal Chemistry, 2022).

In general, MIC refers to the lowest concentration that inhibits growth of the organism. Read a high MIC as a less susceptible organism.

Series [1] has as its system P. aeruginosa CF patient isolates and PAO1. In kind it is cell-based, Pseudomonas aeruginosa. To be noted: PAO1, 24 h. As to the method:
The MIC of the peptides was tested as previously described with minor adjustments.[50],[51] Briefly, peptide activity was examined in sterile 96-well polystyrene plates (Bar-Naor BN36010096D). Overnight cultures of P. aeruginosa were washed and resuspended in a BM2 medium. Aliquots of 50 μL of suspended bacteria (1 × 10^6 CFU/mL) were added to 50 μL of BM2 medium containing peptides in serial 2-fold dilutions (final concentration between 0.78 and 50 μM). Plates were incubated for 24 h at 37 °C while being agitated. Inhibition of growth was assessed by absorbance measurements at OD600 using a microplate auto reader. The MIC was defined as the concentration at which 90% inhibition of growth was observed after incubation for 24 h.

Series [2] has as its system P. aeruginosa clinical CF isolates biofilm. It counts as cell-based, Pseudomonas aeruginosa. The note with it: 24 h. How it is done:
The biofilm formation assay was performed as described for the MIC assay with some alterations and used either BM2 or CF patient sputum diluted 10-fold with BM2. Plates containing peptides at serial dilutions and bacteria were incubated for 24 h at 37 °C without agitation to allow biofilm formation. Unattached bacteria were then washed from plates, and the plates stained with 0.1% CV, followed by absorbance measurements at OD590 using a microplate auto reader. Data are presented as a percentage of the biofilm biomass compared to biofilm formed by untreated bacteria ± the standard error.

The next series in a line: in vitro. To be noted: pooled CF patient sputum diluted 10-fold with PBS, supernatant, 100 μM peptide, 37 °C. How it is done:
(§1) The peptide stability in CF patient sputum was tested as previously described.[52] Briefly, individual sputum samples from CF patients were pooled and diluted 10-fold with Dulbecco’s phosphate-buffered saline without calcium and magnesium. The suspensions were thoroughly mixed and then centrifuged at 1000 rpm for 10 min. D,L-K6L9 peptides and LL-37 were added to the supernatant to a final concentration of 100 μM, and the mixture was incubated at 37 °C for several time intervals. The reaction was stopped by adding 10 μL of 10% hydrogen chloride (HCl) to the 55 μL mixture. Residual peptide concentrations were determined via RP-HPLC on a Vydac C18 column (Grace Discovery Sciences, Deerfield, IL) using a linear gradient from 20% to 60% ACN in water (both containing 0.1% TFA) for 50 min. Data are presented as a percentage of peptide compared to the mixture without incubation ± standard errors.

The subject of another series is CF sputum proteases. Put plainly: in vitro. To be noted: human, supernatant of pooled CF patient sputum, diluted 10-fold. How it is done:
as §1

In another series the test system is mammalian cells. The note with it: cited from earlier work. The source says:
We investigated the antibiofilm and antimicrobial activities of a series of peptides containing nine leucines and six lysines each, with a net charge of +7 (Table 1).

Series [3] relates to P. aeruginosa CF isolates and PAO1. In kind it is cell-based, Pseudomonas aeruginosa. To be noted: 10 μM peptide, 1 h, 37 °C. As to the method:
The suspensions were thoroughly mixed, centrifuged at 1000 rpm for 10 min, and filtered with a 0.22 μm filter. Supernatants were stored and used for killing assays and fluorescence microscopy, respectively. Then, 10^6 CFU/mL of P. aeruginosa was added to a 10% diluted sputum supernatant, followed by 10 μM peptides. The mixture was incubated at 37 °C for 1 h and then diluted and plated on freshly made LB agar plates.

Where two headings read alike, the source gives them in different places.

Take `CC(C)C[C@H](NC(=O)[C@H](CC(C)C)NC(=O)[C@@H](CCCCN)NC(=O)[C@H](CC(C)C)NC(=O)[C@H](CC(C)C)NC(=O)[C@H](CCCCN)NC(=O)[C@@H](CCCCN)NC(=O)[C@@H](CC(C)C)NC(=O)[C@H](CC(C)C)NC(=O)[C@@H](CCCCN)NC(=O)[C@H](CCCCN)NC(=O)[C@H](CC(C)C)NC(=O)[C@@H](CC(C)C)NC(=O)[C@H](CCCCN)NC(=O)[C@@H](N)CC(C)C)C(N)=O` (stereo in doubt) [Amp1D]: the MIC in series [1] was at most 3.12 µM. The “inhibition of biofilm formation” value in series [2] is reported as about 50%. Further, in the series “in vitro” (6 h, RP-HPLC), the “degradation in CF sputum” value was “protected entirely from degradation”. The molecule further gave a metabolised at 48 h, 100 μM in the series on CF sputum proteases of about 30%.
Regarding `CC(C)C[C@H](NC(=O)[C@H](CC(C)C)NC(=O)[C@@H](CC(C)C)NC(=O)[C@@H](CC(C)C)NC(=O)[C@H](CC(C)C)NC(=O)[C@@H](CC(C)C)NC(=O)[C@H](CC(C)C)NC(=O)[C@H](CC(C)C)NC(=O)[C@@H](CCCCN)NC(=O)[C@H](CCCCN)NC(=O)[C@@H](N)CCCCN)C(=O)N[C@@H](CC(C)C)C(=O)N[C@H](CCCCN)C(=O)N[C@@H](CCCCN)C(=O)N[C@@H](CCCCN)C(N)=O` (stereo in doubt) [Seg5D], the “degradation in CF sputum” value in “in vitro” (6 h, RP-HPLC) is listed as “protected entirely from degradation”. The molecule also showed a metabolised at 48 h, 100 μM in the series with CF sputum proteases of about 30%.
In turn, `CC(C)C[C@H](NC(=O)[C@H](CC(C)C)NC(=O)[C@@H](CC(C)C)NC(=O)[C@H](CC(C)C)NC(=O)[C@H](CCCCN)NC(=O)[C@H](CCCCN)NC(=O)[C@@H](CCCCN)NC(=O)[C@@H](CCCCN)NC(=O)[C@H](CCCCN)NC(=O)[C@@H](CCCCN)NC(=O)[C@H](CC(C)C)NC(=O)[C@H](CC(C)C)NC(=O)[C@@H](CC(C)C)NC(=O)[C@H](CC(C)C)NC(=O)[C@@H](N)CC(C)C)C(N)=O` (stereo in doubt) [Seg6D] gave an MIC in series [1] of at most 12.5 µM. Besides, in “in vitro” (6 h, RP-HPLC), the “degradation in CF sputum” value is on record as “protected entirely from degradation”. Further, in the series on CF sputum proteases, the metabolised at 24 h, 100 μM was about 30% and the metabolised at 48 h, 100 μM was about 30%.
On to `CC(C)C[C@H](NC(=O)[C@H](CC(C)C)NC(=O)[C@H](CCCCN)NC(=O)[C@H](CC(C)C)NC(=O)[C@H](CC(C)C)NC(=O)[C@H](CCCCN)NC(=O)[C@H](CCCCN)NC(=O)[C@H](CC(C)C)NC(=O)[C@H](CC(C)C)NC(=O)[C@H](CCCCN)NC(=O)[C@H](CCCCN)NC(=O)[C@H](CC(C)C)NC(=O)[C@H](CC(C)C)NC(=O)[C@H](CCCCN)NC(=O)[C@@H](N)CC(C)C)C(N)=O` [Amp1L], for which, in the series with CF sputum proteases, the metabolised at 3 h, 100 μM was about 70% and the metabolised at 6 h, 100 μM was about 80%. The “toxicity to mammalian cells” value with mammalian cells is “toxic to mammalian cells”.
Regarding `CC[C@H](C)[C@H](NC(=O)[C@H](CCCCN)NC(=O)[C@H](CCC(=O)O)NC(=O)[C@H](CCCCN)NC(=O)[C@H](CO)NC(=O)[C@H](CCCCN)NC(=O)[C@H](CCCNC(=N)N)NC(=O)[C@H](Cc1ccccc1)NC(=O)[C@H](Cc1ccccc1)NC(=O)[C@H](CC(=O)O)NC(=O)CNC(=O)[C@H](CC(C)C)NC(=O)[C@@H](N)CC(C)C)C(=O)NCC(=O)N[C@@H](CCCCN)C(=O)N[C@@H](CCC(=O)O)C(=O)N[C@@H](Cc1ccccc1)C(=O)N[C@@H](CCCCN)C(=O)N[C@@H](CCCNC(=N)N)C(=O)N[C@H](C(=O)N[C@H](C(=O)N[C@@H](CCC(N)=O)C(=O)N[C@@H](CCCNC(=N)N)C(=O)N[C@H](C(=O)N[C@@H](CCCCN)C(=O)N[C@@H](CC(=O)O)C(=O)N[C@@H](Cc1ccccc1)C(=O)N[C@@H](CC(C)C)C(=O)N[C@@H](CCCNC(=N)N)C(=O)N[C@@H](CC(N)=O)C(=O)N[C@@H](CC(C)C)C(=O)N[C@H](C(=O)N1CCC[C@H]1C(=O)N[C@@H](CCCNC(=N)N)C(=O)N[C@H](C(=O)N[C@@H](CCC(=O)O)C(=O)N[C@@H](CO)C(N)=O)[C@@H](C)O)C(C)C)[C@@H](C)CC)C(C)C)[C@@H](C)CC` [LL-37, reference compound], the “degradation in CF sputum” value in “in vitro” (30 min, residual peptide by RP-HPLC vs no incubation) was “fully degraded”. Besides, the killing rate in series [3] (PAO1, 10% mixed CF sputum, 10^6 CFU/mL, colony count vs untreated) is listed as 11.48%; in series [3] (control isolate 895 in 895 CF diluted sputum), 97.57%; in series [3] (isolate 24, 10% mixed CF sputum, 10^6 CFU/mL, colony count vs untreated) it was 13.23%; in series [3] (isolate 46, 10% mixed CF sputum, 10^6 CFU/mL, colony count vs untreated) it was 11.73%; in series [3] (isolate 82, 10% mixed CF sputum, 10^6 CFU/mL, colony count vs untreated), 34.24%.
